Data reported in patent publication US12077503B2, “Substituted cyclic amides and their use as herbicides” (FMC CORPORATION, priority 2015, dated 2024).

Tests used:
Type in all cases: in vivo
[1] = tested on: velvetleaf (Abutilon theophrasti); experiment: Test G Pre-Emergence Protocol; conditions: Abutilon theophrasti, pre-emergence, 312 h, evaluated after 13 days
Procedure, shortened: (§1)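 Pre-emergence spray, 15.625/62.5/250 g/ha, vehicle acetone:water 50:50 + 0.5% Tween 20, applied 1 d after sowing. Glasshouse 24/16° C, 14 h light, 65% RH, watered twice daily. Visual damage rating at 13 d, 0–100 scale.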

[2] = tested on: giant foxtail (Setaria faberi); experiment: Test G Pre-Emergence Protocol; conditions: Setaria faberi, pre-emergence, 312 h, evaluated after 13 days
Procedure, shortened: as §1

corn (Zea mays) [3] = experiment: Test G Pre-Emergence Protocol; conditions: Zea mays, pre-emergence, 312 h, evaluated after 13 days
Procedure, shortened: as §1

[4] = tested on: redroot pigweed (Amaranthus retroflexus); experiment: Test G Pre-Emergence Protocol; conditions: Amaranthus retroflexus, pre-emergence, 312 h, evaluated after 13 days
Procedure, shortened: as §1

[5] = tested on: ivy-leaved morning glory (Ipomoea hederacea); experiment: Test G Pre-Emergence Protocol; conditions: Ipomoea, pre-emergence, 312 h, evaluated after 13 days
Procedure, shortened: as §1

[6] = tested on: barnyardgrass (Echinochloa crus-galli); experiment: Test G Pre-Emergence Protocol; conditions: Echinochloa crus-galli, pre-emergence, 312 h, evaluated after 13 days
Procedure, shortened: as §1

[7] = tested on: velvetleaf (Abutilon theophrasti); experiment: Test G Post-Emergence Protocol; conditions: Abutilon theophrasti, post-emergence, 312 h
Procedure, shortened: (§2)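 Post-emergence herbicidal damage, scored visually 0–100 at 13 days. Application at 15.625, 62.5 or 250 g/ha onto 8-day-old plants grown under glasshouse control.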

[8] = tested on: giant foxtail (Setaria faberi); experiment: Test G Post-Emergence Protocol; conditions: Setaria faberi, post-emergence, 312 h
Procedure, shortened: as §2

corn (Zea mays) [9] = experiment: Test G Post-Emergence Protocol; conditions: Zea mays, post-emergence, 312 h
Procedure, shortened: as §2

[10] = tested on: redroot pigweed (Amaranthus retroflexus); experiment: Test G Post-Emergence Protocol; conditions: Amaranthus retroflexus, post-emergence, 312 h
Procedure, shortened: as §2

[11] = tested on: ivy-leaved morning glory (Ipomoea hederacea); experiment: Test G Post-Emergence Protocol; conditions: Ipomoea, post-emergence, 312 h
Procedure, shortened: as §2

[12] = tested on: barnyardgrass (Echinochloa crus-galli); experiment: Test G Post-Emergence Protocol; conditions: Echinochloa crus-galli, post-emergence, 312 h
Procedure, shortened: as §2

CSc1nnc(NC(=O)[C@@H]2C(=O)N(C)C[C@H]2c2ccc(C(F)(F)F)cc2)[nH]1 (racemic) [Compound 1603]
0%: pest or weed control at 15.625 g/ha ([1]; 15.625 g ai/ha, read-out: Velvetleaf damage rating (100=total damage to plant; 0=no damage to plant)) | pest or weed control at 62.5 g/ha ([1]; 62.5 g ai/ha, 100=total damage to plant, 0=no damage to plant, read-out: plant damage rating, Velvetleaf) | pest or weed control at 250 g/ha ([1]; 250 g ai/ha, read-out: Velvetleaf damage rating (100=total damage to plant; 0=no damage to plant)) | pest or weed control at 15.625 g/ha ([2]; 15.625 g ai/ha, read-out: Foxtail, Giant damage rating (100=total damage to plant; 0=no damage to plant)) | pest or weed control at 62.5 g/ha ([2]; 62.5 g ai/ha, 100=total damage to plant, 0=no damage to plant, read-out: plant damage rating, Foxtail, Giant) | pest or weed control at 250 g/ha ([2]; 250 g ai/ha, read-out: Foxtail, Giant damage rating (100=total damage to plant; 0=no damage to plant)) | plant injury at 15.625 g/ha (corn (Zea mays) [3]; 15.625 g ai/ha, read-out: Corn damage rating (100=total damage to plant; 0=no damage to plant)) | plant injury at 62.5 g/ha (corn (Zea mays) [3]; 62.5 g ai/ha, 100=total damage to plant, 0=no damage to plant, read-out: plant damage rating, Corn) | plant injury at 250 g/ha (corn (Zea mays) [3]; 250 g ai/ha, read-out: Corn damage rating (100=total damage to plant; 0=no damage to plant)) | pest or weed control at 15.625 g/ha ([4]; 15.625 g ai/ha, read-out: Pigweed, Redroot damage rating (100=total damage to plant; 0=no damage to plant)) | pest or weed control at 62.5 g/ha ([4]; 62.5 g ai/ha, 100=total damage to plant, 0=no damage to plant, read-out: plant damage rating, Pigweed, Redroot) | pest or weed control at 250 g/ha ([4]; 250 g ai/ha, read-out: Pigweed, Redroot damage rating (100=total damage to plant; 0=no damage to plant)) | pest or weed control at 15.625 g/ha ([5]; 15.625 g ai/ha, read-out: Morning-glory, Ivy-leaved damage rating (100=total damage to plant; 0=no damage to plant)) | pest or weed control at 62.5 g/ha ([5]; 62.5 g ai/ha, 100=total damage to plant, 0=no damage to plant, read-out: plant damage rating, Morningglory, Ivy-leaved) | pest or weed control at 250 g/ha ([5]; 250 g ai/ha, read-out: Morningglory, Ivy-leaved damage rating (100=total damage to plant; 0=no damage to plant)) | pest or weed control at 15.625 g/ha ([6]; 15.625 g ai/ha, read-out: Barnyard grass damage rating (100=total damage to plant; 0=no damage to plant)) | pest or weed control at 62.5 g/ha ([6]; 62.5 g ai/ha, 100=total damage to plant, 0=no damage to plant, read-out: plant damage rating, Barnyardgrass) | pest or weed control at 250 g/ha ([6]; 250 g ai/ha, read-out: Barnyardgrass damage rating (100=total damage to plant; 0=no damage to plant)) | pest or weed control at 15.625 g/ha ([7]; 15.625 g ai/ha, evaluated after 13 days (100=total damage to plant; 0=no damage to plant), read-out: Velvetleaf damage rating) | pest or weed control at 62.5 g/ha ([7]; 62.5 g ai/ha, evaluated after 13 days, read-out: Velvetleaf damage rating (100=total damage to plant; 0=no damage to plant)) | pest or weed control at 250 g/ha ([7]; 250 g ai/ha, evaluated after 13 days, read-out: damage to plant, Velvetleaf (100=total damage to plant; 0=no damage to plant)) | pest or weed control at 15.625 g/ha ([8]; 15.625 g ai/ha, evaluated after 13 days (100=total damage to plant; 0=no damage to plant), read-out: Foxtail, Giant damage rating) | pest or weed control at 62.5 g/ha ([8]; 62.5 g ai/ha, evaluated after 13 days, read-out: Foxtail, Giant damage rating (100=total damage to plant; 0=no damage to plant)) | pest or weed control at 250 g/ha ([8]; 250 g ai/ha, evaluated after 13 days, read-out: damage to plant, Foxtail, Giant (100=total damage to plant; 0=no damage to plant)) | plant injury at 15.625 g/ha (corn (Zea mays) [9]; 15.625 g ai/ha, evaluated after 13 days (100=total damage to plant; 0=no damage to plant), read-out: Corn damage rating) | plant injury at 62.5 g/ha (corn (Zea mays) [9]; 62.5 g ai/ha, evaluated after 13 days, read-out: Corn damage rating (100=total damage to plant; 0=no damage to plant)) | plant injury at 250 g/ha (corn (Zea mays) [9]; 250 g ai/ha, evaluated after 13 days, read-out: damage to plant, Corn (100=total damage to plant; 0=no damage to plant)) | pest or weed control at 15.625 g/ha ([10]; 15.625 g ai/ha, evaluated after 13 days (100=total damage to plant; 0=no damage to plant), read-out: Pigweed, Redroot damage rating) | pest or weed control at 62.5 g/ha ([10]; 62.5 g ai/ha, evaluated after 13 days, read-out: Pigweed, Redroot damage rating (100=total damage to plant; 0=no damage to plant)) | pest or weed control at 250 g/ha ([10]; 250 g ai/ha, evaluated after 13 days, read-out: damage to plant, Pigweed, Redroot (100=total damage to plant; 0=no damage to plant)) | pest or weed control at 15.625 g/ha ([11]; 15.625 g ai/ha, evaluated after 13 days (100=total damage to plant; 0=no damage to plant), read-out: Morningglory, Ivy-leaved damage rating) | pest or weed control at 62.5 g/ha ([11]; 62.5 g ai/ha, evaluated after 13 days, read-out: Morningglory, Ivy-leaved damage rating (100=total damage to plant; 0=no damage to plant)) | pest or weed control at 250 g/ha ([11]; 250 g ai/ha, evaluated after 13 days, read-out: damage to plant, Morningglory, Ivy-leaved (100=total damage to plant; 0=no damage to plant)) | pest or weed control at 15.625 g/ha ([12]; 15.625 g ai/ha, evaluated after 13 days (100=total damage to plant; 0=no damage to plant), read-out: Barnyardgrass damage rating) | pest or weed control at 62.5 g/ha ([12]; 62.5 g ai/ha, evaluated after 13 days, read-out: Barnyardgrass damage rating (100=total damage to plant; 0=no damage to plant)) | pest or weed control at 250 g/ha ([12]; 250 g ai/ha, evaluated after 13 days, read-out: damage to plant, Barnyardgrass (100=total damage to plant; 0=no damage to plant))
